Values joined by “and” are separate entries in the source; they are usually repeats but may differ in a detail not shown here. Equal entries are not always repeated.
Tests used:
[1] = Ultrasound-triggered drug release from P-triblock P-105 micelles, real-time fluorescence detection; format: physicochemical; conditions: for Drug release: 10% P-triblock P-105 micelles, 37° C.; for Drug release (mean and s.d.): 10% P-triblock
Description: A custom ultrasonic exposure chamber with real-time fluorescence detection was used to measure acoustically-triggered drug release from P-triblock PLURONIC P-105 micelles under continuous wave (CW) or pulsed ultrasound in the frequency range of 20 kHz to 90 kHz. The measurements were based on the decrease in fluorescence intensity when drug was transferred from the micelle core to the aqueous environment. Two fluorescent drugs were used: doxorubicin (DOX) and its paramagnetic analogue, ruboxyl (Rb). P-triblock PLURONIC P-105 at various concentrations in aqueous solutions was used as a micelle-forming polymer. Drug release was highest at 20 kHz ultrasound and dropped with increasing ultrasonic frequency despite much higher power densities. […] The release of DOX was higher than that of Rb due to stronger interaction and deeper insertion of Rb into the core of the micelles. Drug release was higher at lower P-triblock concentrations, which presumably results from higher local drug concentrations in the core of P-triblock micelles when the number of micelles is low. At constant frequency, drug release increased with increasing power density. At constant power density and for pulse duration longer than 0.1 s, peak release under pulsed ultrasound was the same as stationary release under CW ultrasound.
Fluorescence of the drug was excited at an excitation wavelength of 488 nm with an optical power of approximately 0.5 mW in a 2 mm diameter beam. At this light intensity no photobleaching was observed, based on the constant level of drug fluorescence during continuing irradiation for 8 hours. The drug release was quantified by measuring the changes in fluorescence emissions before, during, and after the ultrasound exposure. A fiberoptic probe (a sheathed bundle of multimode glass fibers, 3 mm entrance diameter, 0.6 numerical aperture, and 90 cm in length) was used to collect the fluorescence emission. The light passed through a dielectric bandpass filter with a 35 nm bandwidth centered at 535 nm (Omega Optical Model 535DF35) to a sensitive silicon detector (EG&G Model 450-1). The filter effectively cuts off emissions below 500 nm, including any Rayleigh-scattered laser light. The detector signal was digitized using a 12-bit AID converter (National Instruments) and sent, along with the digitized monitor photodetector signal, to a Macintosh computer for storage and processing. The analog outputs of both photodetectors were also plotted on a stripchart recorder. The temperature of the ultrasonic exposure chamber was maintained at 37° C. by circulating thermostated water throughout the sonicating bath.
The experimental procedure is described below. First, fluorescence intensity of drug in phosphate buffered saline, PBS (FPBS) was measured; then, without any changes in the experimental setup, the PBS solution was carefully removed and replaced with the drug solution in P-triblock micelles. […] The base fluorescence of the micellar solution (Fmic) was measured, after which CW or pulsed ultrasound was turned on. During the “ultrasound on” phase, fluorescence dropped as shown in FIG. 19 due to drug release from the hydrophobic core of micelles into the aqueous environment.
Digitized data were analyzed, to calculate the percentage of drug release from micelles. To reduce the noise, the data were Fourier transformed, and a small magnitude narrow band noise of unknown origin and its next three harmonics were filtered out. After Fourier filtering, the data were smoothed using a 10 point moving average. An example of the raw and filtered data is presented in FIG. 19 for DOX release from 10% P-triblock micelles.
The percent of drug release was calculated assuming that Fmic-FPBS corresponds to 100% drug release:
Release (%)=[(Fmic−Fus)/(Fmic−FPBS)]×100% (1)
where Fus is fluorescence during exposure to ultrasound. […]

[2] = Rb localization in P-triblock micelles and P-gel nanoparticles (EPR and fluorescence); format: physicochemical
Procedure: A dry powder of the EPR probe (16-DS) was incubated with unstabilized or stabilized micellar solutions of P-triblock for 15 mm under constant shaking. Unsolubilized probe was removed by centrifugation. The concentration of a solubilized probe was measured by the EPR. The same technique of probe introduction was used for pyrene. Water solubility of 16-DS or pyrene is very low and can be neglected. Dissolved probes are associated with P-triblock molecules and thus reflect the loading capacity, dynamics and environment of the latter. For a fluorescent drug, Rb, the same concentration of Rb (20 μg/ml) was introduced into non-stabilized and stabilized micellar P-triblock solutions at 37° C. from a stock solution. Because fluorescence of Rb within P-triblock micelles is much higher than outside micelles, the fraction of the drug within micelles can be estimated as
where Fmes is a measured fluorescence intensity, Fm is Rb fluorescence intensity when all the drug is localized in the hydrophobic core of micelles (measured in a 20% P-triblock solution at 37° C.), Fs is fluorescence intensity in non-micellar solutions (i.e., in PBS), and am is the fraction of the drug located in the hydrophobic core of micelles.
Rb was used as a spin- and fluorescent probe to monitor drug distribution in P-triblock micelles and P-gel nanoparticles.
The anthraquinone part of Rb molecule is inherently fluorescent. Rb fluorescence is quenched in collisions with water molecules; when Rb molecules are screened from collisions with water, theft fluorescence increases manifold.

[3] = tested on: blood proteins (albumin, fibrinogen); conditions: reported elsewhere [82]; cited from earlier work

Row | SMILES | Drug release ([1]; 20 kHz, 0.033 W/cm^2) [%] | Drug release ([1]; 20 kHz, 0.047 W/cm^2) [%] | Drug release ([1]; 20 kHz, 0.058 W/cm^2) [%] | Drug release ([1]; 67 kHz, 0.15 W/cm^2) [%] | Drug release ([1]; 67 kHz, CW, 1.35 W/cm^2) [%] | Drug release ([1]; 67 kHz, CW, 1.66 W/cm^2) [%] | Drug release ([1]; 67 kHz, CW, 2.8 W/cm^2) | Drug release (mean and s.d.) ([1]; drug concentration 30 μg/ml, 67 kHz, 2.8 W/cm^2) | Drug release (mean and s.d.) ([1]; drug concentration 40 μg/ml, 67 kHz, 2.8 W/cm^2) | overall fraction of the drug in the cores of P-gel nanoparticle ([2]; EPR, P-gel heated to 37° C.) [%] | fraction of rotationally restricted molecules ([2]; EPR, room temperature, 10% P-triblock solution without a hydrogel) [%] | fraction of rotationally restricted molecules ([2]; EPR, room temperature, 10% P-triblock/1% poly(NiPAAm) P-gel nanoparticles) [%] | fraction of Rb molecules localized in the hydrophobic environment of micelle cores ([2]; fluorescence, room temperature, 10% P-triblock solutions) | Drug Release from P-triblock Micelles ([1]; 20 kHz, 0.021 W/cm^2) | Drug Release from P-triblock Micelles ([1]; 90 kHz, 1.66 W/cm^2) | adsorption or binding to blood proteins (albumin, fibrinogen) [3]
1 | COc1cccc2c1C(=O)c1c(O)c3c(c(O)c1C2=O)C[C@@](O)(C(=O)CO)C[C@@H]3O[C@H]1C[C@H](N)[C@H](O)[C@H](C)O1 [DOX, doxorubicin] | 4.6 ± 0.5 | 6.5 ± 1.1 | 9.2 ± 0.56 | 0 | 5.4 ± 2.3 | 8.1 ± 2.1 | 10.7 ± 0.8% | 5.5%±1% | 10%±1% | – | – | – | – | – | – | –
2 | COc1cccc2c1C(=O)c1c(O)c3c(c(O)c1C2=O)C[C@@](O)(/C(C)=N/N=C1CC(C)(C)N(O)C(C)(C)C1)C[C@@H]3O[C@H]1C[C@H](N)[C@H](O)[C@H](C)O1.Cl [Rb, Ruboxyl] | – | – | – | – | 0.8 ± 0.25 | 3.2 ± 0.9 | 5.5% and 5.5 ± 1.5% | – | – | 73 | 71 | 78 | about 70% | Traces | traces | negligible

— patent publication US6649702B1, “Stabilization and acoustic activation of polymeric micelles for drug delivery” (University of Utah Research Foundation, priority 1999, dated 2003)
